Reference: the supplement of paper PMC10307832

Experiments:
Assay in all cases: relative viability (nuclei count vs DMSO), 5 days (fraction); higher = more cells survive
[1] = compound: C[C@]12O[C@H](C[C@]1(O)CO)n1c3ccccc3c3c4c(c5c6ccccc6n2c5c31)CNC4=O [Lestaurtinib] + Cc1cc(Nc2cc(N3CCN(C)CC3)nc(Sc3ccc(NC(=O)C4CC4)cc3)n2)n[nH]1 [Tozasertib] (partner 0.1 µM)
In short: (§1)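 Values are medians from duplicate plates. Each reflects relative viability, defined as the nuclei count of treated wells over that of vehicle wells. Lung cancer cell lines in 1536-well plates were pin-tool dosed one day after seeding with one drug alone or with a fixed anchor-drug dose plus five library-drug doses (not always all listed) in √10 steps, then fixed, stained and imaged at 4× after 5 days.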

[2] = compound: C[C@]12O[C@H](C[C@]1(O)CO)n1c3ccccc3c3c4c(c5c6ccccc6n2c5c31)CNC4=O [Lestaurtinib] + CC(C)C[C@H](NC(=O)[C@H](Cc1ccccc1)NC(=O)c1cnccn1)B(O)O [Bortezomib] (partner 0.002 µM)
In short: as §1

[3] = compound: C[C@]12O[C@H](C[C@]1(O)CO)n1c3ccccc3c3c4c(c5c6ccccc6n2c5c31)CNC4=O [Lestaurtinib] + CS(=O)(=O)CCNCc1ccc(-c2ccc3ncnc(Nc4ccc(OCc5cccc(F)c5)c(Cl)c4)c3c2)o1 [Lapatinib] (partner 2 µM)
In short: as §1

[4] = compound: C1=CC(=CC=C1C2=CC(=C(S2)NC(=O)N)C(=O)N)F [TPCA-1] + Nc1nc2[nH]cc(CCc3ccc(C(=O)N[C@@H](CCC(=O)O)C(=O)O)cc3)c2c(=O)[nH]1 [Pemetrexed] (partner 0.2 µM)
In short: as §1

Cell Line	relative viability ([1]; first compound 0.005 µM)	relative viability ([1]; first compound 0.01581 µM)	relative viability ([1]; first compound 0.05 µM)	relative viability ([1]; first compound 0.1581 µM)	relative viability ([1]; first compound 0.5 µM)	relative viability ([2]; first compound 0.005 µM)	relative viability ([2]; first compound 0.01581 µM)	relative viability ([2]; first compound 0.05 µM)	relative viability ([2]; first compound 0.1581 µM)	relative viability ([2]; first compound 0.5 µM)	relative viability ([3]; first compound 0.005 µM)	relative viability ([3]; first compound 0.01581 µM)	relative viability ([3]; first compound 0.05 µM)	relative viability ([3]; first compound 0.1581 µM)	relative viability ([3]; first compound 0.5 µM)	relative viability ([4]; first compound 0.04 µM)	relative viability ([4]; first compound 0.1265 µM)	relative viability ([4]; first compound 0.4 µM)	relative viability ([4]; first compound 1.265 µM)	relative viability ([4]; first compound 4 µM)
LU99A	0.287	0.297	0.271	0.218	0.226	1.02	1.02	0.516	0.382	0.208	0.839	0.627	0.446	0.38	0.213	0.17	0.162	0.196	0.167	0.198
BEN	0.561	0.53	0.428	0.377	0.217	0.74	0.998	0.637	0.74	0.328	0.743	0.959	0.586	0.408	0.255	0.701	0.661	0.739	0.99	0.513
SK-LU-1	0.288	0.349	0.267	0.293	0.204	0.975	1.26	0.763	0.673	0.362	0.732	0.805	0.473	0.402	0.2	1.03	0.94	0.986	0.831	0.73
NCI-H1975	0.943	1.02	0.715	0.552	0.486	0.467	0.368	0.345	0.318	0.217	0.902	0.812	0.475	0.422	0.155	0.305	0.297	0.3	0.298	0.286
RERF-LC-KJ	0.489	0.592	0.44	0.433	0.284	1.43	1.17	0.908	0.836	0.728	0.868	0.839	0.731	0.758	0.704	0.473	0.474	0.469	0.524	0.488
HCC-78	0.434	0.363	0.436	0.353	0.183	0.47	0.488	0.425	0.283	0.29	0.507	1.03	0.54	0.272	0.289	0.919	0.911	0.932	0.885	0.9
NCI-H1915	0.498	0.532	0.363	0.49	0.214	0.971	1.06	0.6	0.949	0.284	0.971	1.12	0.922	0.82	0.294	0.532	0.507	0.509	0.46	0.371
